In patent publication US12384808B2, “Modulators of TNF-α activity” (Forward Therapeutics, Inc., priority 2022, dated 2025):

target: TNFα (Homo sapiens, UniProt P01375); assay: TNFα Induced HEK Blue Cellular Assay; format: cell-based; details: not given
Summary of the method: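 IC50 fitted with a 4-parameter logistic model from % inhibition, normalised to DMSO controls with and without stimulation. Readout: QUANTI-Blue SEAP at 620 nm after 24 h, 37 °C exposure to TNFα (100 pg/ml final) and test compound at […]–0.5 nM final.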

Sequence of TNFα (P01375 77-233 limits assumed): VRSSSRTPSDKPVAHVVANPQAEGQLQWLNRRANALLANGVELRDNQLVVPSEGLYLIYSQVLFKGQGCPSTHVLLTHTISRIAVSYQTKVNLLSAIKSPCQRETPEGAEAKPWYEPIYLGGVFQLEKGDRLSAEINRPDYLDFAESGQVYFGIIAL

| Compound | IC50 [nM] |
| --- | --- |
| [2H]C([2H])([2H])N1C(=O)c2cccc(OC(F)F)c2[C@H]2C[C@@H]1c1nc3ccc(-c4ccc(CP(=O)(OC)OC)c(F)c4)cc3n12 [Example 136, dimethyl (4-((7R,14R)-1-(difluoromethoxy)-6-(methyl-d3)-5-oxo-5,6,7,14-tetrahydro-7,14-methanobenzo[f]benzo[4,5]imidazo[1,2-a][1,4]diazocin-11-yl)-2-fluorobenzyl)phosphonate] | < 100 |

same assay, conditions: HEK Blue TNFα reporter cells, TNFα 100 pg/ml, 24 hrs at 37° C., secreted alkaline phosphatase (QUANTI-Blue) read at 620 nm; read-out: IC50 value

| Compound | IC50 [nM] |
| --- | --- |
| [2H]C([2H])([2H])N1C(=O)c2cccc(OC(F)F)c2[C@H]2C[C@@H]1c1nc3ccc(-c4cnc(P(C)(C)=O)c(F)c4)cc3n12 [Example 124, (7R,14R)-1-(difluoromethoxy)-11-(6-(dimethylphosphoryl)-5-fluoropyridin-3-yl)-6-(methyl-d3)-6,7-dihydro-7,14-methanobenzo[f]benzo[4,5]imidazo[1,2-a][1,4]diazocin-5(14H)-one] | < 100 |
| [2H]C([2H])([2H])N1C(=O)c2cccc(OC(F)F)c2[C@H]2C[C@@H]1c1nc3ccc(-c4ccc(P(=O)(CC)CC)c(F)c4)cc3n12 [Example 125, (7R,14R)-11-(4-(diethylphosphoryl)-3-fluorophenyl)-1-(difluoromethoxy)-6-(methyl-d3)-6,7-dihydro-7,14-methanobenzo[f]benzo[4,5]imidazo[1,2-a][1,4]diazocin-5(14H)-one] | < 100 |
| [2H]C([2H])([2H])N1C(=O)c2cccc(OC(F)F)c2[C@H]2C[C@@H]1c1nc3ccc(-c4ccc(P(=O)(CC)CC)nc4)cc3n12 [Example 126, (7R,14R)-11-(6-(diethylphosphoryl)pyridin-3-yl)-1-(difluoromethoxy)-6-(methyl-d3)-6,7-dihydro-7,14-methanobenzo[f]benzo[4,5]imidazo[1,2-a][1,4]diazocin-5(14H)-one] | < 100 |
| [2H]C([2H])([2H])N1C(=O)c2cccc(OC(F)F)c2[C@H]2C[C@@H]1c1nc3ccc(-c4cnc(P(=O)(CC)CC)c(F)c4)cc3n12 [Example 127, (7R,14R)-11-(6-(diethylphosphoryl)-5-fluoropyridin-3-yl)-1-(difluoromethoxy)-6-(methyl-d3)-6,7-dihydro-7,14-methanobenzo[f]benzo[4,5]imidazo[1,2-a][1,4]diazocin-5(14H)-one] | < 100 |
| [2H]C([2H])([2H])N1C(=O)c2cccc(OC(F)(F)F)c2[C@H]2C[C@@H]1c1nc3ccc(-c4ccc(P(C)(C)=O)c(F)c4)cc3n12 [Example 128, (7R,14R)-11-(4-(dimethylphosphoryl)-3-fluorophenyl)-6-(methyl-d3)-1-(trifluoromethoxy)-6,7-dihydro-7,14-methanobenzo[f]benzo[4,5]imidazo[1,2-a][1,4]diazocin-5(14H)-one] | < 100 |
| [2H]C([2H])([2H])N1C(=O)c2cccc(OC(F)F)c2[C@H]2C[C@@H]1c1nc3ccc(-c4cc(F)c(P(C)(C)=O)c(OC)c4)cc3n12 [Example 129, (7R,14R)-1-(difluoromethoxy)-11-(4-(dimethylphosphoryl)-3-fluoro-5-methoxyphenyl)-6-(methyl-d3)-6,7-dihydro-7,14-methanobenzo[f]benzo[4,5]imidazo[1,2-a][1,4]diazocin-5(14H)-one] | < 100 |
| [2H]C([2H])([2H])N1C(=O)c2cccc(OC(F)F)c2[C@H]2C[C@@H]1c1nc3ccc(-c4cc(F)c(P(C)(C)=O)cc4OC)cc3n12 [Example 130, (7R,14R)-1-(difluoromethoxy)-11-(4-(dimethylphosphoryl)-5-fluoro-2-methoxyphenyl)-6-(methyl-d3)-6,7-dihydro-7,14-methanobenzo[f]benzo[4,5]imidazo[1,2-a][1,4]diazocin-5(14H)-one] | < 100 |
| [2H]C([2H])([2H])N1C(=O)c2cccc(OC(F)F)c2[C@H]2C[C@@H]1c1nc3ccc(-c4cc(N)c(P(C)(C)=O)c(F)c4)cc3n12 [Example 131, (7R,14R)-11-(3-amino-4-(dimethylphosphoryl)-5-fluorophenyl)-1-(difluoromethoxy)-6-(methyl-d3)-6,7-dihydro-7,14-methanobenzo[f]benzo[4,5]imidazo[1,2-a][1,4]diazocin-5(14H)-one] | 10000 to 30000 |
| [2H]C([2H])([2H])N1C(=O)c2cccc(OC(F)F)c2[C@H]2C[C@@H]1c1nc3ccc(-c4cc(C)c(P(C)(C)=O)c(F)n4)cc3n12 [Example 132, (7R,14R)-1-(difluoromethoxy)-11-(5-(dimethylphosphoryl)-6-fluoro-4-methylpyridin-2-yl)-6-(methyl-d3)-6,7-dihydro-7,14-methanobenzo[f]benzo[4,5]imidazo[1,2-a][1,4]diazocin-5(14H)-one] | < 100 |
| [2H]C([2H])([2H])N1C(=O)c2cccc(OC(F)F)c2[C@H]2C[C@@H]1c1nc3ccc(-c4cc(F)c(P(C)(C)=O)c(C#N)c4)cc3n12 [Example 133, 5-((7R,14R)-1-(difluoromethoxy)-6-(methyl-d3)-5-oxo-5,6,7,14-tetrahydro-7,14-methanobenzo[f]benzo[4,5]imidazo[1,2-a][1,4]diazocin-11-yl)-2-(dimethylphosphoryl)-3-fluorobenzonitrile] | < 100 |
| [2H]C([2H])([2H])N1C(=O)c2cccc(OC(F)F)c2[C@H]2C[C@@H]1c1nc3ccc(-c4cnc(P(C)(C)=O)c(C)c4)cc3n12 [Example 134, (7R,14R)-1-(difluoromethoxy)-11-(6-(dimethylphosphoryl)-5-methylpyridin-3-yl)-6-(methyl-d3)-6,7-dihydro-7,14-methanobenzo[f]benzo[4,5]imidazo[1,2-a][1,4]diazocin-5(14H)-one] | < 100 |
| [2H]C([2H])([2H])N1C(=O)c2cccc(OC(F)F)c2[C@H]2C[C@@H]1c1nc3c(F)cc(-c4ccc(P(C)(C)=O)c(F)c4)cc3n12 [Example 135, (7R,14R)-1-(difluoromethoxy)-11-(4-(dimethylphosphoryl)-3-fluorophenyl)-9-fluoro-6-(methyl-d3)-6,7-dihydro-7,14-methanobenzo[f]benzo[4,5]imidazo[1,2-a][1,4]diazocin-5(14H)-one] | < 100 |
| CCP(=O)(CC)c1ccc(-c2ccc3nc4n(c3c2)[C@@H]2C[C@H]4NC(=O)c3cccc(OC(F)F)c32)cn1 [Example 137, (7R,14R)-11-(6-(diethylphosphoryl)pyridin-3-yl)-1-(difluoromethoxy)-6,7-dihydro-7,14-methanobenzo[f]benzo[4,5]imidazo[1,2-a][1,4]diazocin-5(14H)-one] | < 100 |
| CCP(=O)(CC)c1ccc(-c2ccc3nc4n(c3c2)[C@@H]2C[C@H]4NC(=O)c3cccc(OC(F)F)c32)c(F)c1 [Example 138, (7R,14R)-11-(4-(diethylphosphoryl)-2-fluorophenyl)-1-(difluoromethoxy)-6,7-dihydro-7,14-methanobenzo[f]benzo[4,5]imidazo[1,2-a][1,4]diazocin-5(14H)-one] | < 100 |
| [2H]C([2H])([2H])N1C(=O)c2cccc(OC(F)F)c2[C@H]2C[C@@H]1c1nc3ccc(-c4ccc(P(C)(C)=O)c(F)c4)c(F)c3n12 [Example 139, (7R,14R)-1-(difluoromethoxy)-11-(4-(dimethylphosphoryl)-3-fluorophenyl)-12-fluoro-6-(methyl-d3)-6,7-dihydro-7,14-methanobenzo[f]benzo[4,5]imidazo[1,2-a][1,4]diazocin-5(14H)-one] | < 100 |
| CP(C)(=O)c1ccc(-c2ccc3nc4n(c3c2F)[C@@H]2C[C@H]4NC(=O)c3cccc(OC(F)F)c32)cc1F [Example 140, (7R,14R)-1-(difluoromethoxy)-11-(4-(dimethylphosphoryl)-3-fluorophenyl)-12-fluoro-6,7-dihydro-7,14-methanobenzo[f]benzo[4,5]imidazo[1,2-a][1,4]diazocin-5(14H)-one] | < 100 |
| [2H]C([2H])([2H])N1C(=O)c2cccc(OC(F)F)c2[C@H]2C[C@@H]1c1nc3ccc(-c4ccc(P(C)(C)=O)c(F)c4)nc3n12 [Example 141, (7R,14R)-1-(difluoromethoxy)-11-(4-(dimethylphosphoryl)-3-fluorophenyl)-6-(methyl-d3)-6,7-dihydro-7,14-methanobenzo[f]pyrido[3′,2′:4,5]imidazo[1,2-a][1,4]diazocin-5(14H)-one] | < 100 |
| [2H]C([2H])([2H])N1C(=O)c2cccc(OC(F)F)c2[C@H]2C[C@@H]1c1nc3ccc(-c4cc(F)c(P(C)(C)=O)cc4F)nc3n12 [Example 142, (7R,14R)-1-(difluoromethoxy)-11-(4-(dimethylphosphoryl)-2,5-difluorophenyl)-6-(methyl-d3)-6,7-dihydro-7,14-methanobenzo[f]pyrido[3′,2′:4,5]imidazo[1,2-a][1,4]diazocin-5(14H)-one] | < 100 |
